Data as given in patent publication US20030232383A1, “Novel reagentless sensing system for measuring carbohydrates based on the galactose/glucose binding protein” (priority 2001, published 2003).
Read-outs that look alike come from different tables or passages of the source.

Experiments:
GBP labeled with D-22 = GBP labeled with D-22 (Escherichia coli, UniProt P0AEE5); test: Steady-state fluorescence of D-22-labeled (dansylated) GBP; type: binding, E. coli; conditions: addition of 1.6×10^−4 M sugar; protein to fluorophore 1:50, 1:100, 1:200
Procedure: Labeling GBP with D-22. GBP was dialysed three times against 0.1 M NaHCO3, pH 9.0. Three conjugation reactions with protein to fluorophore mole ratios of 1:50, 1:100, and 1:200 were carried out. Three microvials, each containing GBP, were placed in an ice bath. The fluorophore was added to the vials in small increments while the solution was being stirred. The mixture was allowed to react in the dark at 4° C. for 1 h. To eliminate the excess of unbound D-22, size exclusion chromatography was employed. A D-Salt Polyacrylamide 6000 desalting column was equilibrated with 10 mM Tris-HCl, pH 8.0. The conjugates were loaded onto the column. Elution of the labeled protein was conducted with the equilibration buffer and the conjugate finally dialysed three times against 10 mM Tris-HCl, pH 8.0.
Steady-state fluorescence studies of the labeled GBP. Fluorescence measurements were conducted with sample volumes of 1.5 mL and in quartz cuvettes. After the addition of 30 μL of D-(+)-galactose and D-(+)-glucose to the conjugate, the solution was allowed to incubate for 15 min at 4° C. while mixing at 400 rpm. The excitation and emission monochromator slit widths were set at 2 mm. The excitation wavelength was 350 nm and emission was detected at 475 nm.

GBP = GBP (Escherichia coli, UniProt P0AEE5); conditions: Miller et al. 1983; read-out: dissociation constants, Kd; cited from earlier work
[1] = target: GBP mutant G148C (Gly148Cys) (Escherichia coli, UniProt P0AEE5, G171C); type: binding, E. coli
Procedure: (§1) Labeling the mutants of GBP with fluorescent probes. The mutant protein was first dialysed three times against either 10 mM Tris-HCl, 1 mM DTT, 0.2 mM CaCl2, pH 8.0 (for reaction with MDCC) or 10 mM HEPES, 1 mM DTT, 0.2 mM CaCl2, pH 7.4 (for reaction with acrylodan, 1,5-IAEDANS, or IANBD ester). DTT was present in the buffers to reduce any disulfide linkages that may have formed between two protein molecules. The protein was then dialysed three times against the respective buffers (with no DTT) to remove excess of the reducing agent. For the conjugation reaction, a molar ratio of fluorophore to protein of 5:1 was employed. The fluorophores were added slowly to the mutants of GBP (μM concentrations) so as to allow the cysteine residue on all the protein molecules to have an equal opportunity to react with the fluorophore. The solution was stirred constantly in a glass reaction vessel and in the dark for 4 h at 4° C. (with MDCC and acrylodan) or for 2-3 h at RT (with 1,5-IAEDANS or IANBD ester). The conjugated protein was separated from the free fluorophore by running the sample through a Sephadex G-25 column and eluting with the respective buffer.
(§2) Steady-state fluorescence studies of the fluorophore-labeled mutant proteins. The excitation and emission monochromator slit widths were both set at 2 mm. The excitation and emission wavelengths for MDCC, acrylodan, 1,5-IAEDANS, and IANBD ester were 425 nm and 475 nm, 382 nm and 509 nm, 336 nm and 490 nm, and 472 nm and 536 nm, respectively. All data were obtained at RT using quartz cuvettes with sample volumes of 1.5-2 mL. The concentrations of labeled proteins used in the steady-state fluorescence studies were in the 1×10^−7 M range. The conjugates were incubated with various concentrations of glucose and galactose for 15-20 min at RT on a shaker at 400 rpm. The samples were analyzed in the spectrofluorometer under the aforementioned parameters. Calibration plots were obtained by relating the average fluorescence change with the concentration of glucose or galactose in the sample.

[2] = target: GBP mutant H152C (His152Cys) (Escherichia coli, UniProt P0AEE5, H175C); type: binding, E. coli
Procedure: as §1, §2

[3] = target: GBP mutant M182C (Met182Cys) (Escherichia coli, UniProt P0AEE5, M205C); test: Steady-state fluorescence of fluorophore-labeled GBP mutant M182C on ligand binding; design: species or system E. coli
Procedure: as §1, with “(with MDCC and acrylodan) or for 2-3 h at RT (with 1,5-IAEDANS or IANBD ester). The conjugated protein was separated from the free fluorophore by running the sample through a Sephadex G-25 column and eluting with the respective buffer.” left out
Steady-state fluorescence studies of the fluorophore-labeled mutant proteins. […] The concentrations of labeled proteins used in the steady-state fluorescence studies were in the 1×10^−7 M range. […] The samples were analyzed in the spectrofluorometer under the aforementioned parameters. Calibration plots were obtained by relating the average fluorescence change with the concentration of glucose or galactose in the sample.

[4] = target: calcium binding site of GBP (Escherichia coli, UniProt P0AEE5); conditions: Vyas et al. 1989, cited from earlier work
calcium binding site of GBP, sequence (P0AEE5 24-332 limits assumed): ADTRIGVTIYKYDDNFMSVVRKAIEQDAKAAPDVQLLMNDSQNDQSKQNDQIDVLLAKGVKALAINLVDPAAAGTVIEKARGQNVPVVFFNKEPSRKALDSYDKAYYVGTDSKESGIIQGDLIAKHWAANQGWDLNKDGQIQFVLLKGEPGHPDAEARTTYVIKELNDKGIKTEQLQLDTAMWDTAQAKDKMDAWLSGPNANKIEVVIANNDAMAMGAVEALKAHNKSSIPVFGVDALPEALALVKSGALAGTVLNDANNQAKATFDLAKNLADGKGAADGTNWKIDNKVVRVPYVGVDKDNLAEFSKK

GBP mutant H152C (His152Cys), sequence (P0AEE5 24-332 H175C limits assumed): as the sequence (P0AEE5 24-332 limits assumed) above, with H152C counted along it
GBP mutant M182C (Met182Cys), sequence (P0AEE5 24-332 M205C): as the sequence (P0AEE5 24-332 limits assumed) above, with M182C counted along it
GBP mutant G148C (Gly148Cys), sequence (P0AEE5 24-332 G171C limits assumed): as the sequence (P0AEE5 24-332 limits assumed) above, with G148C counted along it
GBP, sequence (P0AEE5 24-332): as the sequence (P0AEE5 24-332 limits assumed) above
GBP labeled with D-22, sequence (P0AEE5 24-332 limits assumed): as above

## O=C[C@H](O)[C@@H](O)[C@@H](O)[C@H](O)CO [Galactose, D-(+)-galactose]
GBP labeled with D-22
  change of fluorescence signal of dansylated GBP: quenching of the fluorescence signal
GBP
  Kd: 400 µM
[1]; G148C labeled with IAEDANS
  % quenching: 7%
[1]; G148C labeled with MDCC
  % quenching: 16%
[2]; H152C labeled with IANBD
  % quenching: 4%
[2]; H152C labeled with MDCC
  % quenching: 19%
[3]; M182C labeled with Acrylodan
  % quenching: 5%
[3]; M182C labeled with MDCC
  % quenching: 6%

## [Ca+2] [calcium]
[4]; read-out: dissociation constant
  Kd: 2 µM

## [Tb+3] [terbium]
[4]
  dissociation rate: 0.001 s⁻¹
